In data set [1] the target is T1, CB1R (Mus musculus, UniProt P47746).
T1 construct: crude membranes from mouse brain for CB1R; from tissue; host or cells: mouse brain, crude membranes
Kind of data set: Radioligand binding assay, competition displacement of [3H]CP-55,940, CB1R. The procedure:
Radioligand binding assays: Binding to CB1R and CB2R was assessed in competition displacement assays using [3^H]CP-55,940 as the radioligand and crude membranes from mouse brain for CB1R or human cell membrane for CB2R, as reported previously. All data were in triplicates with Ki values determined from three independent experiments.
CB1R binding: The actual affinity of the 14 candidates was tested in a CB1R competitive binding assay.
(In general: Displacement assays read how much labelled ligand stays bound in the presence of the test substance.)

Data set [2] can be described thus: Tissue levels of antagonists (brain, serum) by LC-MS/MS. In kind it is in vivo, mice. To be noted: 1 hour after single dose. The protocol:
Blood was collected, and the mice were perfused with phosphate buffered saline for 1 min to remove drug from the intravascular space before removing the brain and liver. Drug levels in tissue homogenates and plasma were determined by using LC-MS/MS.

The target in data set [3] is T1, CB1R. Kind of data set: [35S]GTPγS binding, with and without CB1R agonist HU-210. In kind it is biochemical. To be noted: mouse brain membranes, compounds at 10 μM, with and without HU-210 (100 nM). The procedure:
[^35S]GTPγS binding: Mouse brains (CB1R) or human cell membranes (CB2R) were dissected and P2 membranes prepared and resuspended at ˜2 μg protein/μL in 1 mL assay buffer (50 mM Tris HCl, 9 mM MgCl2, 0.2 mM EGTA, 150 mM NaCl; pH 7.4). Ligand-stimulated [^35S]GTPγS binding was assayed as described previously. Briefly, membranes (10 μg protein) were incubated in assay buffer containing 100 μM GDP, 0.05 nM [^35S]GTPγS, test compounds (HU-210, CP55,940 and tested molecules) at 10 μM, and 1.4 mg/mL fatty acid-free BSA in siliconized glass tubes. Bound ligand was separated from free ligand by vacuum filtration. Non-specific binding was determined using 10 μM GTPS. Basal binding was assayed in the absence of the ligand and in the presence of GDP.
The test was performed for each compound with and without the CB1R agonist HU-210 (100 nM).
(GTPγS resists hydrolysis and so accumulates on activated G proteins.)

The test system of another data set is mice. In words: Locomotor activity, CB1R-mediated hyperactivity. The class given is in vivo. To be noted: 10 mg/kg ip. The text has this:
Locomotor Activity: Locomotor activity was quantified by the number of disruptions of infrared XYZ beam arrays with a beam spacing of 0.25 cm in the Promethion High-Definition Behavioral Phenotyping System (Sable Instruments, Inc., Las Vegas, Nev., USA).
We next tested whether the reduced brain penetrance of Compound 8/Compound 4 is associated with an attenuation of behavioral effects.

The mark [4] stands for this setting: separated isomer R, read-out: Ki (μM) R.
[5] abbreviates: CB1R competitive binding, mouse brain membranes, [3H]CP-55,940, read-out: Ki.
Where [6] appears, read: Mix (not separated), read-out: Ki (μM) Mix.
Where [7] appears, read: CB1R competitive binding, values in text, read-out: CB1R Ki.

As a reminder, the Ki is the dissociation constant of the complex between target and ligand, obtained from inhibition or displacement.

Entries after “also recorded” stand apart in the source; their conditions may differ. Like-named read-outs stand apart in the source and are kept apart here.

T1 sequence (P47746 whole entry): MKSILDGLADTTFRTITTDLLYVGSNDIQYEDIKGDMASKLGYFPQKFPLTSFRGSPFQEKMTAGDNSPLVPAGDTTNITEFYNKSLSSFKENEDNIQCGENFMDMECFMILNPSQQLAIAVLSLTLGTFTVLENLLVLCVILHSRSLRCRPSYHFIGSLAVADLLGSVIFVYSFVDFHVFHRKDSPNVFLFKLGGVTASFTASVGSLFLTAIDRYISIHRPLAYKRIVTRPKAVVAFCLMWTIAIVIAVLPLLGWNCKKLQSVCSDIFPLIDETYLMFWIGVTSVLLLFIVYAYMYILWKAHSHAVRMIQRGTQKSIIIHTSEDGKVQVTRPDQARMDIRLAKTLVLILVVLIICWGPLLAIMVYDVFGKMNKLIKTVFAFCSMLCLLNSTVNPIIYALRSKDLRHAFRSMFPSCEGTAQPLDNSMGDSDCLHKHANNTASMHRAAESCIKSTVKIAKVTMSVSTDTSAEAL

As to `CC1=C(C(=O)Nc2ccccc2C(F)(F)F)C(c2cccc(Oc3ccccc3)c2)NC(=S)N1` (single isomer, unassigned) [Compound 2-R], at CB1R [1] (setting [4]), the Ki was 4 µM.

`CC1=C(C(=O)Nc2ccccc2C(F)(F)F)C(c2cccc(Oc3ccccc3)c2)NC(=S)N1` (single isomer, unassigned) [Compound 2-S]: the Ki on CB1R [1] (separated isomer S, read-out: Ki (μM) S) worked out at 6.33 µM.

Consider `CC(=O)c1cccc(S(=O)(=O)NCCC(=O)NCC(c2ccccc2Cl)c2c[nH]c3ccccc23)c1` (single isomer, unassigned) [Compound 3-R], for which, on CB1R [1] (setting [4]), the Ki came to 1.3 µM. Take `CC(C)C(NC(=O)c1ccco1)C(=O)NCC(c1ccccc1Cl)c1c[nH]c2ccccc12` (single isomer, unassigned) [Compound 4-RR]: on CB1R [1] (separated isomer RR, read-out: Ki (μM) RR), the Ki was 0.54 µM. For the same molecule, in data set [2] (mice, 10, 20, 50 mg/kg ip), the “brain penetrance (brain levels vs serum levels)” value was “markedly reduced brain penetrance”. Consider `CC(C)C(NC(=O)c1ccco1)C(=O)NCC(c1ccccc1Cl)c1c[nH]c2ccccc12` (single isomer, unassigned) [Compound 4-RS], for which the Ki at CB1R [1] (separated isomer RS, read-out: Ki (μM) RS) turned out to be 8.46 µM. With `CC(C)C(NC(=O)c1ccco1)C(=O)NCC(c1ccccc1Cl)c1c[nH]c2ccccc12` (single isomer, unassigned) [Compound 4-SR], the Ki on CB1R [1] (separated isomer SR, read-out: Ki (μM) SR) amounted to 0.48 µM. Also, in data set [2] (mice, 10, 20, 50 mg/kg ip), the “brain penetrance (brain levels vs serum levels)” value is on record as “markedly reduced brain penetrance”. For `CC(C)C(NC(=O)c1ccco1)C(=O)NCC(c1ccccc1Cl)c1c[nH]c2ccccc12` (single isomer, unassigned) [Compound 4-SS], the Ki on CB1R [1] (separated isomer SS, read-out: Ki (μM) SS) was determined as 1.66 µM. On to `CC1=C(C(=O)Nc2ccccc2C(F)(F)F)C(c2cccc(Oc3ccccc3)c2)NC(=S)N1` (centres unmarked) [Compound 2], for which the Ki at CB1R [1] (setting [5]) was 2.1 µM; at CB1R [1] (setting [6]), 3.36 µM. For the same molecule, on CB1R [3], the “activity (agonism, antagonism, inverse agonism) properties” value is “inverse agonists”.

With `CC(=O)c1cccc(S(=O)(=O)NCCC(=O)NCC(c2ccccc2Cl)c2c[nH]c3ccccc23)c1` (centres unmarked) [Compound 3], the results for the Ki on CB1R [1] (setting [5]) and on CB1R [1] (setting [6]) were 1.8 µM and 1.1 µM, respectively. With `CC(C)C(NC(=O)c1ccco1)C(=O)NCC(c1ccccc1Cl)c1c[nH]c2ccccc12` (centres unmarked) [Compound 4], the Ki at CB1R [1] (setting [5]) turned out to be 1.1 µM; on CB1R [1] (setting [6]) it was 1 µM. Further, the “activity (agonism, antagonism, inverse agonism) properties” value on CB1R [3] was “neutral antagonism; also recorded: antagonist”.

For the molecule `CC(NC(=O)Nc1ccccc1)C(=O)NCC(c1ccccc1Cl)c1c[nH]c2ccccc12` (centres unmarked) [Compound 7], the Ki at CB1R [1] (setting [5]) came to 3.9 µM. As to `CC1=C(C(=O)Nc2ccccc2C(F)(F)F)C(c2ccc(OCc3ccccc3)cc2)NC(=S)N1` (centres unmarked) [Compound 8], the inhibition constant Ki is 0.408 µM at CB1R [1] (setting [5]), roughly 0.4 µM at CB1R [1] (setting [7]) and 0.346 µM at CB1R [1] (setting [6]). In addition, the “activity (agonism, antagonism, inverse agonism) properties” value at CB1R [3] was “inverse agonists”. Moreover, the “brain penetrance (brain levels vs serum levels)” value in data set [2] (mice, 3, 10 and 30 mg/kg ip) is reported as “markedly reduced brain penetrance”. Consider `N#Cc1ccc(CC(C#N)(Cc2ccc(C#N)cc2)c2nc(-c3ccc(Cl)c(Cl)c3)cs2)cc1` [Compound 10], for which the values for the Ki on CB1R [1] (setting [5]) and at CB1R [1] (setting [7]) were 0.414 µM and roughly 0.4 µM, respectively. On CB1R [3], the “activity (agonism, antagonism, inverse agonism) properties” value is given as “positive allosteric modulator (PAM)”. In the case of `Cc1ccc(C(=O)C2SC(Nc3ccc(Cl)cc3)=C(C(=O)Nc3ccc(Cl)cc3)C2=N)cc1` (centres unmarked) [Compound 11], the Ki at CB1R [1] (setting [5]) came out at 1.3 µM. Also, the “activity (agonism, antagonism, inverse agonism) properties” value at CB1R [3] was “inverse agonists”. For `Cc1ccc(NC(=S)Nc2ccc(C(C)C)cc2)c(S(=O)(=O)Nc2ccc(Cl)cc2)c1` [Compound 12], the Ki at CB1R [1] (setting [5]) came out at 3.4 µM. The “activity (agonism, antagonism, inverse agonism) properties” value at CB1R [3] is given as “inverse agonists”. Take `CC(=O)Nc1ccc(C)c(S(=O)(=O)NCC(c2ccccc2Cl)c2c[nH]c3ccccc23)c1` (centres unmarked) [Compound 13]: the Ki on CB1R [1] (setting [5]) came to 6.5 µM. On to `CC(=O)NC(CC(=O)NCC(c1ccccc1Cl)c1c[nH]c2ccccc12)c1ccc(C)cc1` (centres unmarked) [Compound 14], for which the figures for the Ki at CB1R [1] (setting [5]) and on CB1R [1] (setting [6]) were 0.938 µM and 1.2 µM, respectively. Further, the “activity (agonism, antagonism, inverse agonism) properties” value on CB1R [3] is “inverse agonists”. As to `Cc1c(C(=O)NN2CCCCC2)nn(-c2ccc(Cl)cc2Cl)c1-c1ccc(Cl)cc1` [Rimonabant, reference compound], in the data set on mice, the “inducing CB1R-mediated hyperactivity (activity profile)” value is “induced a marked increase in the activity profile”.

The values are drawn from patent US20230172929A1, “NOVEL PERIPHERAL CANNABINOID-1 RECEPTOR ANTAGONISTS” (Yissum Research Development Company of the Hebrew …, priority 2019, published 2023).
